Measurements: patent US8822688B2, “Imidazo[1,2-a]pyridine derivative” (Astellas Pharma Inc., priority 2010, dated 2014)
Counter-ions that a name gives are not always drawn.

Molecular target: T1, human PDE4B2 (Homo sapiens, UniProt Q07343)
T1 construct: FLAG; made in house; host or cells: COS-1 cells (plasmid amplified in E. coli)
Assay: Human PDE4B activity inhibition test (SPA, [3H]-cAMP)
Format: biochemical
Settings: FLAG-tagged human PDE4B2 purified from COS-1 cells; 30 min at room temperature; read-out: IC50 (nM), human PDE4B inhibitory activity
Description: Test Method 1: Human PDE4B Inhibitory Activity
(1) Purification of Human PDE4B Enzyme
Plasmid DNA encoding FLAG-tagged human PDE4B2 was prepared and transfected into E. coli, and mass cultivation was performed. After extracting and purifying the plasmid DNA from the E. coli, the resultant was transfected into COS-1 cells and cultured. After the cells were homogenized, the expressed enzyme was purified using a FLAG peptide affinity column.
(2) Human PDE4B Activity Inhibition Test
1 μl/well of DMSO solution in which various concentrations of test compounds were dissolved and 74 μl/well of the purified enzyme diluted with a buffer were added to 96-well plates, and incubated at room temperature for 10 minutes. A buffer including 40 nM [^3H]-cAMP (Amersham, TRK559) and 4 μM cAMP were added at 25 μl/well and reacted for 30 minutes at room temperature. A suspension (18 mM ZnSO4, 5 mM IBMX, distilled water) of polylysin coated yttrium silicate SPA beads (Amersham, RPNQ0010) was added at 50 μl/well, and the reaction was stopped. After standing for 20 minutes at room temperature, the radioactivity was measured using a top count instrument and set as an index of enzyme activity. For evaluating the enzyme inhibitory activity of the test compound in each experiment, a value of IC50 was calculated with the radiation activity of the well of adding the vehicle (DMSO) and the enzyme as 0% inhibition and the radiation activity of the well of adding only the vehicle and not adding the enzyme as 100% inhibition.

T1 sequence (Q07343 1-564 isoform Q07343-2): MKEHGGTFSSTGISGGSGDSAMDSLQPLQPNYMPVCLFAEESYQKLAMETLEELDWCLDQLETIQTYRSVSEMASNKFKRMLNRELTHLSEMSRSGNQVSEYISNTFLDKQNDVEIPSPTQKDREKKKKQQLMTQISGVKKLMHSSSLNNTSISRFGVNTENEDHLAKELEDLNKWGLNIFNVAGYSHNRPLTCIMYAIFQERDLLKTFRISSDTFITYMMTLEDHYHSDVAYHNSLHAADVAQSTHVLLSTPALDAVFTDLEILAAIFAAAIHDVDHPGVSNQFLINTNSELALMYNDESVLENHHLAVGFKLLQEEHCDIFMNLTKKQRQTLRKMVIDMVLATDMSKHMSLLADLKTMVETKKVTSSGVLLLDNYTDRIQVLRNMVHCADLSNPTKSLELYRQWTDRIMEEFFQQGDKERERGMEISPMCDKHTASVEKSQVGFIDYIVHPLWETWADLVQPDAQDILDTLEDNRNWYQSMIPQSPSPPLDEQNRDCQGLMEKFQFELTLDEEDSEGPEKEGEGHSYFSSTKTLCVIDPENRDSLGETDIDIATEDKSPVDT

| SMILES | IC50 [nM] |
| --- | --- |
| COC1(CO)CCN(c2c3c(c(C(N)=O)c4nc5ccccc5n24)CC(C)(C)C3)CC1 [Example 12] | 2.7 |
| CC1(CN)CCN(c2c3c(c(C(N)=O)c4nc5ccccc5n24)CCC3)CC1 [Example 18, 11-[4-(aminomethyl)-4-methylpiperidin-1-yl]-2,3-dihydro-1H-cyclopenta[4,5]pyrido[1,2-a]benzimidazole-4-carboxamide dihydrochloride] | 18 |
| CC1(C)CCc2c(c(N3CCC(C)(CO)CC3)n3c(nc4ccccc43)c2C(N)=O)C1 [Example 4] | 86 |
| CO[C@@]1(CO)CCN(c2c3c(c(C(N)=O)c4nc5ccccc5n24)CC(C)(C)C3)C[C@@H]1F (relative stereo) [Example 22, rel-11-[(3R,4S)-3-fluoro-4-(hydroxymethyl)-4-methoxypiperidin-1-yl]-2,2-dimethyl-2,3-dihydro-1H-cyclopenta[4,5]pyrido[1,2-a]benzimidazole-4-carboxamide] | 11.8 |
| CO[C@]1(CO)CCN(c2c3c(c(C(N)=O)c4nc5ccccc5n24)CCC3)C[C@H]1F (relative stereo) [Example 10] | 48 |
| COC1(CO)CCN(c2c3c(c(C(N)=O)c4nc5ccccc5n24)CCC3)CC1 [Example 8] | 8 |
| COC1(CO)CCN(c2c3c(c(C(N)=O)c4nc5c(n24)CCCC5)CCC3)CC1 [Example 15] | 26 |
| NC(=O)c1c2c(c(N3CCC4(CO)CC4C3)n3c1nc1ccccc13)CCC2 (centres unmarked) [Example 23, 11-[6-(hydroxymethyl)-3-azabicyclo[4.1.0]hept-3-yl]-2,3-dihydro-1H-cyclopenta[4,5]pyrido[1,2-a]benzimidazole-4-carboxamide hydrochloride] | 42 |
| N#CC1(CO)CCN(c2c3c(c(C(N)=O)c4nc5ccccc5n24)CCC3)CC1 [Example 5] | 14 |
| CC1(CO)CCN(c2c3c(c(C(N)=O)c4nc5ccccc5n24)CCC3)CC1 [Example 2] | 13 |
| NC(=O)c1c2c(c(N3CCC4(CCNC4)CC3)n3c1nc1ccccc13)CCC2 [Example 26] | 13 |
| COC1(CO)CCN(c2c3c(c(C(N)=O)c4nc5ccccc5n24)C2CCC3C2)CC1 (centres unmarked) [Example 14] | 3.3 |
| COC1(CO)CCN(c2c3c(c(C(N)=O)c4nc5ccccc5n24)CCSC3)CC1 [Example 16] | 15 |
| NC(=O)c1c2c(c(N3CCC4(CC3)CNC4)n3c1nc1ccccc13)CCC2 [Example 25, 11-(2,7-diazaspiro[3.5]non-7-yl)-2,3-dihydro-1H-cyclopenta[4,5]pyrido[1,2-a]benzimidazole-4-carboxamide dihydrochloride] | 8.2 |
